What was measured:
Test in all cases: relative viability (nuclei count vs DMSO), 5 days (fraction); higher = more cells survive
EKVX = tested on: EKVX
Outline: (§1)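 Lung cancer cell lines, seeded in 1536-well plates, were treated the following day by pin tool with a single drug or with five library-drug doses (not always all listed) in √10 steps on top of a fixed anchor-drug dose. Cells were fixed and nuclei stained in one step after 5 days, and nuclei were counted. Relative viability is the nuclei count for treated wells divided by that for vehicle wells, reported as medians of duplicate plates.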

NCI-H1703 = tested on: NCI-H1703
Outline: as §1

NCI-H1993 = tested on: NCI-H1993
Outline: as §1

NCI-H2085 = tested on: NCI-H2085
Outline: as §1

ABC-1 = tested on: ABC-1
Outline: as §1

NCI-H1648 = tested on: NCI-H1648
Outline: as §1

NCI-H2126 = tested on: NCI-H2126
Outline: as §1

HCC-44 = tested on: HCC-44
Outline: as §1

RERF-LC-KJ = tested on: RERF-LC-KJ
Outline: as §1

O=c1cc(N2CCOCC2)oc2c(-c3cccc4c3sc3ccccc34)cccc12 + NC(=O)Nc1cc(-c2cccc(F)c2)sc1C(=O)N[C@H]1CCCNC1 [AZD7762] (partner 0.2 µM)
relative viability (EKVX; first compound 0.01 µM): 0.654
relative viability (EKVX; first compound 0.03162 µM): 0.757
relative viability (EKVX; first compound 0.1 µM): 0.445
relative viability (EKVX; first compound 0.3162 µM): 0.878
relative viability (EKVX; first compound 1 µM): 0.695
relative viability (NCI-H1703; first compound 0.01 µM): 0.143
relative viability (NCI-H1703; first compound 0.03162 µM): 0.137
relative viability (NCI-H1703; first compound 0.3162 µM): 0.146
relative viability (NCI-H1703; first compound 1 µM): 0.131
relative viability (NCI-H1993; first compound 0.01 µM): 0.832
relative viability (NCI-H1993; first compound 0.03162 µM): 0.764
relative viability (NCI-H1993; first compound 0.1 µM): 0.779
relative viability (NCI-H1993; first compound 0.3162 µM): 0.692
relative viability (NCI-H1993; first compound 1 µM): 0.715
relative viability (NCI-H2085; first compound 0.01 µM): 1
relative viability (NCI-H2085; first compound 0.03162 µM): 1.02
relative viability (NCI-H2085; first compound 0.1 µM): 0.887
relative viability (NCI-H2085; first compound 0.3162 µM): 1.05
relative viability (NCI-H2085; first compound 1 µM): 1.01
relative viability (ABC-1; first compound 0.01 µM): 0.819
relative viability (ABC-1; first compound 0.03162 µM): 0.774
relative viability (ABC-1; first compound 0.1 µM): 0.695
relative viability (ABC-1; first compound 0.3162 µM): 0.694
relative viability (ABC-1; first compound 1 µM): 0.848
relative viability (NCI-H1648; first compound 0.03162 µM): 0.889
relative viability (NCI-H1648; first compound 0.1 µM): 0.714
relative viability (NCI-H1648; first compound 0.3162 µM): 0.609
relative viability (NCI-H1648; first compound 1 µM): 0.746
relative viability (NCI-H2126; first compound 0.01 µM): 0.982
relative viability (NCI-H2126; first compound 0.03162 µM): 0.97
relative viability (NCI-H2126; first compound 0.1 µM): 1.12
relative viability (NCI-H2126; first compound 0.3162 µM): 0.981
relative viability (NCI-H2126; first compound 1 µM): 1.02
relative viability (HCC-44; first compound 0.01 µM): 1.03
relative viability (HCC-44; first compound 0.03162 µM): 1.08
relative viability (HCC-44; first compound 0.1 µM): 0.973
relative viability (HCC-44; first compound 0.3162 µM): 1.01
relative viability (HCC-44; first compound 1 µM): 0.966
relative viability (RERF-LC-KJ; first compound 0.01 µM): 0.595
relative viability (RERF-LC-KJ; first compound 0.03162 µM): 0.951
relative viability (RERF-LC-KJ; first compound 0.1 µM): 1.18
relative viability (RERF-LC-KJ; first compound 0.3162 µM): 0.994
relative viability (RERF-LC-KJ; first compound 1 µM): 1.03

CCN(CC)CCCCNc1ncc2cc(-c3cc(OC)cc(OC)c3)c(NC(=O)NC(C)(C)C)nc2n1 + NC(=O)Nc1cc(-c2cccc(F)c2)sc1C(=O)N[C@H]1CCCNC1 [AZD7762] (partner 0.2 µM)
relative viability (EKVX; first compound 0.03162 µM): 0.585
relative viability (EKVX; first compound 0.1 µM): 0.643
relative viability (EKVX; first compound 0.3162 µM): 0.723
relative viability (EKVX; first compound 1 µM): 0.709
relative viability (NCI-H1703; first compound 0.03162 µM): 0.0943
relative viability (NCI-H1703; first compound 0.1 µM): 0.12
relative viability (NCI-H1703; first compound 0.3162 µM): 0.143
relative viability (NCI-H1703; first compound 1 µM): 0.112
relative viability (NCI-H1993; first compound 0.01 µM): 0.896
relative viability (NCI-H1993; first compound 0.03162 µM): 0.708
relative viability (NCI-H1993; first compound 0.1 µM): 0.721
relative viability (NCI-H1993; first compound 0.3162 µM): 0.97
relative viability (NCI-H1993; first compound 1 µM): 0.869
relative viability (NCI-H2085; first compound 0.01 µM): 0.991
relative viability (NCI-H2085; first compound 0.03162 µM): 1.05
relative viability (NCI-H2085; first compound 0.1 µM): 1.05
relative viability (NCI-H2085; first compound 0.3162 µM): 1.04
relative viability (NCI-H2085; first compound 1 µM): 0.912
relative viability (ABC-1; first compound 0.01 µM): 0.766
relative viability (ABC-1; first compound 0.1 µM): 1.1
relative viability (ABC-1; first compound 0.3162 µM): 0.795
relative viability (ABC-1; first compound 1 µM): 0.825
relative viability (NCI-H1648; first compound 0.01 µM): 0.69
relative viability (NCI-H1648; first compound 0.03162 µM): 0.688
relative viability (NCI-H1648; first compound 0.1 µM): 0.757
relative viability (NCI-H1648; first compound 0.3162 µM): 0.583
relative viability (NCI-H1648; first compound 1 µM): 0.445
relative viability (NCI-H2126; first compound 0.01 µM): 0.976
relative viability (NCI-H2126; first compound 0.03162 µM): 1
relative viability (NCI-H2126; first compound 0.1 µM): 1.15
relative viability (NCI-H2126; first compound 0.3162 µM): 1.13
relative viability (NCI-H2126; first compound 1 µM): 1.01
relative viability (HCC-44; first compound 0.01 µM): 1
relative viability (HCC-44; first compound 0.03162 µM): 1.02
relative viability (HCC-44; first compound 0.1 µM): 1.02
relative viability (HCC-44; first compound 0.3162 µM): 1.02
relative viability (HCC-44; first compound 1 µM): 1.12
relative viability (RERF-LC-KJ; first compound 0.01 µM): 0.919
relative viability (RERF-LC-KJ; first compound 0.03162 µM): 1.04
relative viability (RERF-LC-KJ; first compound 0.1 µM): 0.983
relative viability (RERF-LC-KJ; first compound 0.3162 µM): 1.28
relative viability (RERF-LC-KJ; first compound 1 µM): 1.1

O=c1cc(-c2cccc3c2Sc2ccccc2S3)oc(N2CCOCC2)c1 + NC(=O)Nc1cc(-c2cccc(F)c2)sc1C(=O)N[C@H]1CCCNC1 [AZD7762] (partner 0.2 µM)
relative viability (EKVX; first compound 0.08 µM): 0.67
relative viability (EKVX; first compound 0.253 µM): 0.709
relative viability (EKVX; first compound 0.8 µM): 0.74
relative viability (EKVX; first compound 2.53 µM): 0.669
relative viability (EKVX; first compound 8 µM): 0.717
relative viability (NCI-H1703; first compound 0.253 µM): 0.13
relative viability (NCI-H1703; first compound 2.53 µM): 0.098
relative viability (NCI-H1703; first compound 8 µM): 0.116
relative viability (NCI-H1993; first compound 0.08 µM): 0.707
relative viability (NCI-H1993; first compound 0.253 µM): 0.763
relative viability (NCI-H1993; first compound 0.8 µM): 0.556
relative viability (NCI-H1993; first compound 2.53 µM): 0.749
relative viability (NCI-H1993; first compound 8 µM): 0.728
relative viability (NCI-H2085; first compound 0.08 µM): 1.01
relative viability (NCI-H2085; first compound 0.253 µM): 1.17
relative viability (NCI-H2085; first compound 0.8 µM): 1.02
relative viability (NCI-H2085; first compound 2.53 µM): 0.836
relative viability (NCI-H2085; first compound 8 µM): 0.614
relative viability (ABC-1; first compound 0.08 µM): 0.738
relative viability (ABC-1; first compound 0.253 µM): 0.7
relative viability (ABC-1; first compound 0.8 µM): 0.714
relative viability (ABC-1; first compound 2.53 µM): 1
relative viability (ABC-1; first compound 8 µM): 0.875
relative viability (NCI-H1648; first compound 0.253 µM): 0.694
relative viability (NCI-H1648; first compound 0.8 µM): 0.734
relative viability (NCI-H1648; first compound 8 µM): 0.69
relative viability (NCI-H2126; first compound 0.08 µM): 1.02
relative viability (NCI-H2126; first compound 0.253 µM): 1.16
relative viability (NCI-H2126; first compound 0.8 µM): 1.04
relative viability (NCI-H2126; first compound 2.53 µM): 1.03
relative viability (NCI-H2126; first compound 8 µM): 1.04
relative viability (HCC-44; first compound 0.08 µM): 1.06
relative viability (HCC-44; first compound 0.253 µM): 1.04
relative viability (HCC-44; first compound 0.8 µM): 0.937
relative viability (HCC-44; first compound 2.53 µM): 0.991
relative viability (HCC-44; first compound 8 µM): 0.986
relative viability (RERF-LC-KJ; first compound 0.08 µM): 0.913
relative viability (RERF-LC-KJ; first compound 0.253 µM): 1.05
relative viability (RERF-LC-KJ; first compound 0.8 µM): 0.846
relative viability (RERF-LC-KJ; first compound 2.53 µM): 0.977
relative viability (RERF-LC-KJ; first compound 8 µM): 1.02

— the supplement of paper PMC10307832
